# Paper PMC4295395, “An open label pilot study to evaluate the efficacy of Spanish black radish on the induction of phase I and phase II enzymes in healthy male subjects” (BMC Complementary and Alternative Medicine, 2014)
# Tests used:
# [1] = Plasma acetaminophen and metabolite profile (HPLC) after 1000 mg acetaminophen, at week 0 and after 4 weeks of SBR supplementation; conditions: for Decrease of plasma AUC0-8h from week 0 to week 4: after 4 weeks SBR supplementation; for Decrease of plasma AUC0-8h from week 0 to week 4 / AUC(0-t) / Cmax / Tmax / Plasma AUC(0–8 hour) / Plasma Tmax / Plasma Cmax: 1000 mg acetaminophen; for Plasma Tmax, difference from week 0 to week 4: after 4 weeks SBR vs week 0, mean ± SD; for AUC(0-t) / Cmax / Tmax: male, human, plasma, oral, 1000 mg; for AUC(0-t): Plasma AUC(0–8 hour); for Cmax: Plasma Cmax; for Tmax: Plasma Tmax
# Procedure: (§1) Participants returned to the clinic for their 8-hour in-clinic baseline visit (week 0) at which time their heart rate and blood pressure were measured and BMI calculated. […] Meals were provided after the pre-dose and 4-hour blood collection. After the 8-hour test period, participants received 3-day food records and paper diaries for recording their study product use, changes in concomitant therapies, and any side effects/changes in health conditions.
# (§2) Participants returned to the clinic in a fasting state at 28 days post-baseline (week 4) for an 8-hour in-clinic test at which time heart rate and blood pressure were measured and BMI was calculated. […] Meals were provided after the pre-dose and the 4-hour blood collection. Subjects were required to consume the same meal items on each of the 8-hour test days.
# The plasma was separated and aliquoted into 1.0 mL volume samples. These samples were stored below -40°C until high-performance […] chromatography (HPLC) analysis was performed. Plasma samples were prepared for HPLC analysis by adding 25 μl of 30% w/v aqueous perchloric acid (311413, Sigma-Aldrich, Toronto, Canada) to 250 μl of plasma in a 1.5 ml Eppendorf tube and then vortexed for 30 seconds and centrifuged at 1800 g for 10 min and 20 μl of clear supernatant was injected into the HPLC system.
# Paracetamol (50 μg, A5000, Sigma-Aldrich, Toronto, Canada), paracetamol glucuronide (50 μg, A4438, Sigma-Aldrich, Toronto, Canada), or paracetamol sulfate (50 μg, A161230, Toronto Research Chemical Inc., Toronto, Canada) was added to 1 ml of Milli Q water/methanol mixture (50:50 v/v). NAPQI (50 μg, A170000, Toronto Research Chemical) was added to 1 ml acetonitrile. […] standard solutions were prepared in plasma devoid of paracetamol (blank) at the following concentrations: 25 μg/ml, 12.5 μg/ml, 6.25 μg/ml, 3.125 μg/ml, 1.56 μg/ml, 0.78 μg/ml and 0.39 μg/ml by serial dilution.
# (§3) The chromatography system comprised of a Varian Solvent Delivery module 210, injector Varian Auto Sampler model 410, Varian 335 Photo Diode Array Detector for detection and MS workstation software 6.4.1 for data acquisition. Reverse phase isocratic HPLC analysis was performed with a C18 column with particle size 4 μm (4.6x150 mm). The flow rate was 0.65-0.75 ml/minute and the detection was at 240–245 nm. A 0.1 M sodium phosphate buffer containing acetonitrile at a ratio of 10:90 (v/v) was used as the mobile phase for plasma analysis. A 1 M sodium phosphate buffer containing acetonitrile at a ratio of 5:95 (v/v) was used as mobile phase for urine analysis.
# (§4) Statistical comparisons of maximum concentrations (Cmax) and area under the concentration time curve (AUC) were performed on log transformed data. A paired t-test was used to compare pre- and post-treatment measurements of safety end points: biometrics, vital signs, hematology and blood clinical chemistry parameters. SAS Version 9.1 was used to perform the statistical analysis, with probability values ≤0.05 considered statistically significant.
# [2] = Urine acetaminophen and metabolite profile (HPLC) after 1000 mg acetaminophen, at week 0 and after 4 weeks of SBR supplementation; type: in vivo, human; conditions: for Urine concentration at time points, week 4 vs week 0 (in words): 0, 2, 4, 6, 8 h after 1000 mg acetaminophen, after 4 weeks SBR; for Increase of urine levels (AUC0-8h) from week 0 to week 4: after 4 weeks SBR supplementation, 1000 mg acetaminophen
# Procedure: as §1, §2
# At baseline and week 4, urine was collected in separate containers at 2 hour intervals between 0 and 8 hours, aliquoted into 1.0 mL volumes and stored below -40°C until HPLC analysis. Urine samples were prepared for HPLC analysis by adding 750 μl of Milli Q water to 250 μl of urine and vortexed. The preparation was centrifuged at 1800 g for 10 min and 20 μl of the preparation was injected into the HPLC system.
# Paracetamol (5000 μg, A5000, Sigma-Aldrich), paracetamol glucuronide (5000 μg, A4438, Sigma-Aldrich), paracetamol sulfate (5000 μg, A161230, Toronto Research Chemical) or paracetamol mercapturate (5000 μg, A172100, Toronto Research Chemical) were added to 1 ml of a Milli Q water/methanol mixture (50:50 v/v). Serial dilutions of each stock solution were prepared in urine devoid of paracetamol (blank) to give the following concentrations: 2500 μg/ml, 1250 μg/ml, 625 μg/ml, 312.5 μg/ml, 156.25 μg/ml, 78.15 μg/ml, 39.0625 μg/ml, 19.531 μg/ml, 9.766 μg/ml and 4.883 μg/ml by serial dilution.
# as §3, §4
# [3] = week 0 (before SBR), N=19, mean ± SD
# [4] = week 4 (after 4 weeks SBR), N=19, mean ± SD
# [5] = week 0 (before SBR), healthy males N=19, mean ± SD
# [6] = week 4 (after 4 weeks SBR, 6 tablets daily), N=19, mean ± SD
# [7] = after 4 weeks SBR vs week 0, mean ± SD
Structure (SMILES),"Plasma concentration at time points, week 4 vs week 0 (in words) ([1]; 0, 2, 4, 6, 8 h after 1000 mg acetaminophen, after 4 weeks SBR)",Decrease of plasma AUC0-8h from week 0 to week 4 [1],"Plasma Tmax, difference from week 0 to week 4 [1]","AUC(0-t) [1, 3]","AUC(0-t) [1, 4]","Cmax [1, 5]","Cmax [1, 6]","Tmax [1, 3]","Tmax [1, 4]","Urine concentration at time points, week 4 vs week 0 (in words) [2]",Increase of urine levels (AUC0-8h) from week 0 to week 4 [2],"Urine AUC(0–8 hour), difference from week 0 to week 4 [2, 7]","Urine Cmax, difference from week 0 to week 4 [2, 7]","Urine Tmax, difference from week 0 to week 4 [2, 7]","Plasma AUC(0–8 hour) [1, 3]","Plasma Tmax [1, 3]","Plasma Cmax [1, 5]","Plasma AUC(0–8 hour) [1, 4]","Plasma Tmax [1, 4]","Plasma Cmax [1, 6]"
CC(=O)Nc1ccc(O[C@@H]2O[C@H](C(=O)O)[C@@H](O)[C@H](O)[C@H]2O)cc1 [Acetaminophen glucuronide],decreased significantly at 2 h post-acetaminophen dose,9%,0.42 ± 1.26 h,58000 ± 14500 ng·h/mL,52800 ± 14100 ng·h/mL,12600 ± 4120 ng/mL,10800 ± 3090 ng/mL,2.13 ± 0.46 h,2.55 ± 1.13 h,no significant differences,1%,-38.69 ± 342.45 mg·h,19.57 ± 124.28 mg,0.32 ± 1.67 h,,,,,,
CC(=O)Nc1ccc(O)c(SCC(N)C(=O)O)c1 (centres unmarked) [Acetaminophen mercapturate],,,,,,,,,,higher at all time points,37%,22.68 ± 44.43 mg·h,4.82 ± 9.72 mg,,,,,,,
CC(=O)Nc1ccc(O)c(SC[C@H](NC(=O)CC[C@H](N)C(=O)O)C(=O)NCC(=O)O)c1 [NAPQI-GSH],,9%,-0.00 ± 0.02 h,,,,,,,,,,,,0.72 ± 0.31 µM·h,2.03 ± 0.01 h,180 ± 90 nM,0.66 ± 0.22 µM·h,2.02 ± 0.01 h,180 ± 40 nM
